Where “and” joins values, the source holds several entries; their conditions need not be identical. Identical values can stand only once. ± gives the expanded uncertainty stated by the source.
Assay: wn = mass fraction of the nth substance listed
Settings: Liquid, w2 = 0.5

CC(F)(F)F [1,1,1-trifluoroethane] + FC(F)C(F)(F)F
Settings | viscosity
253.26 K, 2000 kPa | 0.237 ± 0.0053 mPa·s
253.26 K, 2010 kPa | 0.2374 ± 0.0053 mPa·s
253.26 K, 2090 kPa | 0.2377 ± 0.0053 mPa·s
253.26 K, 2170 kPa | 0.2378 ± 0.0053 mPa·s
253.26 K, 2180 kPa | 0.2371 ± 0.0053 mPa·s
253.26 K, 2220 kPa | 0.2379 ± 0.0053 mPa·s
253.26 K, 3370 kPa | 0.2426 ± 0.0054 mPa·s
253.26 K, 3380 kPa | 0.2427 ± 0.0054 mPa·s
253.26 K, 3390 kPa | 0.2427 ± 0.0054 mPa·s
253.26 K, 3410 kPa | 0.2425 ± 0.0054 mPa·s
253.26 K, 4930 kPa | 0.2479 ± 0.0055 mPa·s
253.26 K, 4960 kPa | 0.2479 ± 0.0055 mPa·s
253.26 K, 4970 kPa | 0.248 ± 0.0055 mPa·s
253.26 K, 4990 kPa | 0.2482 ± 0.0055 mPa·s
253.26 K, 5020 kPa | 0.2483 ± 0.0055 mPa·s
253.26 K, 5070 kPa | 0.2487 ± 0.0055 mPa·s
253.26 K, 7440 kPa | 0.2574 ± 0.0057 mPa·s
253.26 K, 7500 kPa | 0.2576 ± 0.0057 mPa·s
253.26 K, 7620 kPa | 0.258 ± 0.0057 mPa·s
253.26 K, 7720 kPa | 0.2587 ± 0.0057 mPa·s
263.23 K, 1990 kPa | 0.2076 ± 0.0047 mPa·s
263.23 K, 2020 kPa | 0.2074 ± 0.0047 mPa·s
263.23 K, 2070 kPa | 0.2081 ± 0.0047 mPa·s
263.23 K, 2120 kPa | 0.2077 ± 0.0049 mPa·s
263.23 K, 3660 kPa | 0.2139 ± 0.0048 mPa·s
263.23 K, 3670 kPa | 0.2137 ± 0.0048 mPa·s and 0.2139 ± 0.0048 mPa·s
263.23 K, 3680 kPa | 0.2138 ± 0.0048 mPa·s and 0.2137 ± 0.0048 mPa·s
263.23 K, 3720 kPa | 0.214 ± 0.0048 mPa·s
263.23 K, 3780 kPa | 0.214 ± 0.0048 mPa·s
263.23 K, 4690 kPa | 0.2177 ± 0.0049 mPa·s
263.23 K, 4990 kPa | 0.2192 ± 0.005 mPa·s
263.23 K, 5010 kPa | 0.2195 ± 0.005 mPa·s
263.23 K, 7000 kPa | 0.2258 ± 0.005 mPa·s
263.23 K, 7050 kPa | 0.2257 ± 0.0051 mPa·s
263.23 K, 7190 kPa | 0.2262 ± 0.0052 mPa·s
263.23 K, 7220 kPa | 0.227 ± 0.0052 mPa·s
273.24 K, 2150 kPa | 0.1827 ± 0.0043 mPa·s
273.24 K, 2160 kPa | 0.1825 ± 0.0042 mPa·s
273.24 K, 2190 kPa | 0.1826 ± 0.0042 mPa·s and 0.1823 ± 0.0042 mPa·s
273.24 K, 2230 kPa | 0.1829 ± 0.0043 mPa·s
273.24 K, 2260 kPa | 0.1829 ± 0.0042 mPa·s
273.24 K, 2270 kPa | 0.1829 ± 0.0042 mPa·s
273.24 K, 3450 kPa | 0.1878 ± 0.0043 mPa·s and 0.1876 ± 0.0043 mPa·s
273.24 K, 3470 kPa | 0.1877 ± 0.0043 mPa·s
273.24 K, 3480 kPa | 0.1873 ± 0.0043 mPa·s
273.24 K, 3500 kPa | 0.1878 ± 0.0043 mPa·s
273.24 K, 5030 kPa | 0.1923 ± 0.0044 mPa·s
273.24 K, 5040 kPa | 0.1925 ± 0.0044 mPa·s
273.24 K, 5060 kPa | 0.1925 ± 0.0044 mPa·s
273.24 K, 7360 kPa | 0.2011 ± 0.0046 mPa·s
273.24 K, 7450 kPa | 0.2008 ± 0.0046 mPa·s
273.24 K, 7520 kPa | 0.2015 ± 0.0046 mPa·s
273.24 K, 9710 kPa | 0.2103 ± 0.0048 mPa·s
273.24 K, 9880 kPa | 0.2106 ± 0.0048 mPa·s and 0.2104 ± 0.0048 mPa·s
283.34 K, 2000 kPa | 0.1592 ± 0.0038 mPa·s
283.34 K, 2060 kPa | 0.1592 ± 0.0038 mPa·s
283.34 K, 2120 kPa | 0.1591 ± 0.0038 mPa·s
283.34 K, 2160 kPa | 0.1591 ± 0.0038 mPa·s
283.34 K, 2220 kPa | 0.1593 ± 0.0038 mPa·s
283.34 K, 2230 kPa | 0.1592 ± 0.004 mPa·s and 0.1596 ± 0.0039 mPa·s
283.34 K, 2250 kPa | 0.1596 ± 0.0039 mPa·s
283.34 K, 2260 kPa | 0.1595 ± 0.0039 mPa·s
283.34 K, 2270 kPa | 0.1597 ± 0.0039 mPa·s
283.34 K, 3720 kPa | 0.165 ± 0.0039 mPa·s
283.34 K, 3770 kPa | 0.1651 ± 0.0039 mPa·s and 0.1654 ± 0.0039 mPa·s
283.34 K, 3820 kPa | 0.1654 ± 0.0039 mPa·s
283.34 K, 3860 kPa | 0.1655 ± 0.0039 mPa·s
283.34 K, 3880 kPa | 0.1657 ± 0.004 mPa·s
283.34 K, 4970 kPa | 0.1693 ± 0.004 mPa·s
283.34 K, 5000 kPa | 0.1693 ± 0.004 mPa·s
283.34 K, 5030 kPa | 0.1696 ± 0.004 mPa·s
283.34 K, 5040 kPa | 0.1695 ± 0.004 mPa·s
283.34 K, 7600 kPa | 0.178 ± 0.0042 mPa·s
283.34 K, 7640 kPa | 0.1783 ± 0.0042 mPa·s
283.34 K, 7680 kPa | 0.1784 ± 0.0042 mPa·s
283.34 K, 9750 kPa | 0.1851 ± 0.0046 mPa·s
283.34 K, 9860 kPa | 0.1854 ± 0.0047 mPa·s
283.34 K, 9900 kPa | 0.1857 ± 0.0045 mPa·s
283.34 K, 9920 kPa | 0.1857 ± 0.0045 mPa·s
283.34 K, 9930 kPa | 0.1856 ± 0.0044 mPa·s
293.33 K, 1920 kPa | 0.1394 ± 0.0035 mPa·s
293.33 K, 1940 kPa | 0.1392 ± 0.0035 mPa·s
293.33 K, 1970 kPa | 0.1396 ± 0.0035 mPa·s
293.33 K, 2020 kPa | 0.1394 ± 0.0035 mPa·s
293.33 K, 3570 kPa | 0.145 ± 0.0036 mPa·s
293.33 K, 3690 kPa | 0.1454 ± 0.0036 mPa·s
293.33 K, 3720 kPa | 0.1455 ± 0.0036 mPa·s
293.33 K, 3750 kPa | 0.1457 ± 0.0036 mPa·s
293.33 K, 4910 kPa | 0.1503 ± 0.0037 mPa·s and 0.15 ± 0.0037 mPa·s
293.33 K, 5000 kPa | 0.1506 ± 0.0037 mPa·s
293.33 K, 5030 kPa | 0.1506 ± 0.0037 mPa·s
293.33 K, 7510 kPa | 0.1585 ± 0.0038 mPa·s
293.33 K, 7540 kPa | 0.1584 ± 0.0038 mPa·s
293.33 K, 7560 kPa | 0.1584 ± 0.0038 mPa·s
293.33 K, 9770 kPa | 0.1667 ± 0.0039 mPa·s
293.33 K, 9810 kPa | 0.1669 ± 0.004 mPa·s
293.33 K, 9850 kPa | 0.1666 ± 0.004 mPa·s
293.33 K, 9880 kPa | 0.1669 ± 0.004 mPa·s
293.33 K, 9930 kPa | 0.1672 ± 0.004 mPa·s

Reference: the NIST ThermoML archive (doi:10.1021/je700345b)
